The values below come from paper PMC4010497, “Synthesis and Evaluation of Fluorine-Substituted Phenyl Acetate Derivatives as Ultra-Short Recovery Sedative/Hypnotic Agents” (PLoS ONE, 2014).

One data set can be described thus: in vivo. Particulars: mouse, in vivo; mice, 95% confidence limits. How it is done:
(§1) The LD50 was determined in mice, rats, and rabbits and the TI was calculated as LD50/HD50.

Another data set relates to mice. Kind of data set: in vivo. Particulars: LD50/HD50. The protocol: as §1
The next data set deals with GABAA receptor. Kind of data set: GABAA radioligand binding assay ([3H]EBOB). Particulars: 50 µM compound, 0.5 nM [3H]EBOB, rat frontoparietal cortex. How it is done:
All the new compounds were dissolved in 5% DMSO.
Specific binding was determined in the presence of compounds.
Membrane suspensions were thawed and centrifuged in incubation buffer at 10,000×g for 10 min and washed by a similar centrifugation. For displacement studies, membrane suspensions (5 mg original wet wt./ml) were incubated with 0.5 nM [^3H]EBOB ([…], Perkin Elmer Life Sciences, Boston, MA, USA) in the absence or presence of 50 µM of new compounds or reference drug for 2 h at 25°C. Nonspecific binding was determined in the presence of 10 µM Bicuculline. Bicuculline and picrotoxin were frequently used to determine the nonspecific binding when [3H]EBOB as radioligand [17]. Triplicate 1 ml samples were filtered on Whatman GF/B filters under vacuum with a Brandel Harvester and washed with 3×3 ml ice-cold buffer.

Data set [1] is described as follows: In vitro metabolic half-life in rat whole blood. It counts as in vitro ADME. The settings on record: male, Sprague-Dawley Rat (n = 3), 37°C, read-out: Mean t1/2 Value. The protocol:
Human whole blood stability experiments were conducted in whole blood from four human donors (male, 18–25 years). Single experiments were conducted with pooled blood from Sprague-Dawley rats (male, 8 weeks, n = 3), New Zealand White rabbits (male, 8–10 weeks, n = 3), Beagle dogs (male, 2–3 years, n = 3) and Cynomolgus monkeys (male, 3–4 years, n = 3). All the blood samples were provided by Xuzhou Medical College. A 1.35-ml aliquot of blood was warmed at 37°C for 5 min and hypnotic (from a 40 mM stock in DMSO solution) was added to a final concentration of 200 µM. After the specified incubation time, a 150-µl sample was removed and the metabolic reaction was quenched using 150-µl acetonitrile. Zero time-point samples were prepared by adding 150-µl acetonitrile (using a 4 mM stock in DMSO) to 150-µl blood before addition of the hypnotic. The quenched samples were centrifuged, and the supernatant was separated and stored at −20°C until analyzed. Hypnotic concentrations in thawed samples were determined by high-performance liquid chromatography using a 3-µm phenyl 4.6×50-mm C-A-25, ACE column with the UV detector set at 240 nm. […] The lower limit of quantitation of this assay is 3 µM and the accuracy within 15% at 10 µM. The metabolic half-lives were quantified from the incubation time-dependent change in drug concentration.

The next data set concerns rabbits. Kind of data set: Therapeutic index (LD50/HD50) in rabbits. It counts as in vivo, rabbit. How it is done: as §1
The nature of data set [2]: In vitro metabolic half-life in dog whole blood. It counts as in vitro ADME, Beagle dog. The protocol:
Human whole blood stability experiments were conducted in whole blood from four human donors (male, 18–25 years). Single experiments were conducted with pooled blood from Sprague-Dawley rats (male, 8 weeks, n = 3), New Zealand White rabbits (male, 8–10 weeks, n = 3), Beagle dogs (male, 2–3 years, n = 3) and Cynomolgus monkeys (male, 3–4 years, n = 3). All the blood samples were provided by Xuzhou Medical College. A 1.35-ml aliquot of blood was warmed at 37°C for 5 min and hypnotic (from a 40 mM stock in DMSO solution) was added to a final concentration of 200 µM. After the specified incubation time, a 150-µl sample was removed and the metabolic reaction was quenched using 150-µl acetonitrile. Zero time-point samples were prepared by adding 150-µl acetonitrile (using a 4 mM stock in DMSO) to 150-µl blood before addition of the hypnotic. The quenched samples were centrifuged, and the supernatant was separated and stored at −20°C until analyzed. Hypnotic concentrations in thawed samples were determined by high-performance liquid chromatography using a 3-µm phenyl 4.6×50-mm C-A-25, ACE column with the UV detector set at 240 nm. A linear gradient 20–45% acetonitrile in water with 0.05% trifluoroacetic acid was run for more than 20 min at a flow rate of 1 ml/min. The lower limit of quantitation of this assay is 3 µM and the accuracy within 15% at 10 µM. The metabolic half-lives were quantified from the incubation time-dependent change in drug concentration.

Data set [3] concerns the target T1, human GABAA receptor α1, β2 and γ2 (CHO-K1 cells) (Homo sapiens, UniProt P14867+P18507+P47870).
T1 construct: expressed in transfected cells; host or cells: CHO-K1 cells, stably transfected
Kind of data set: cell-based. Particulars: GABAA (α1β2γ2) CHO-K1 cell. The protocol:
Chinese hamster ovary (CHO)-K1 cells transfected stably with human GABAA receptor α1, β2 and γ2 subunit cDNAs were used. The cells were plated onto collagen-coated 35-mm cell culture dishes at low density for 1–7 days before recording. Test solutions were prepared in the extracellular solution on the day the patch-clamp assay was performed. The intracellular solution consisted of 22 mM KCl, 110 mM K-aspartate, 8 mM NaCl, 1 mM MgCl2, 1 mM CaCl2, 10 mM ethylene glycol tetraacetic acid, 5 mM Na2ATP, 10 mM hydroxyethyl piperazineethanesulfonic acid (HEPES) (adjusted to pH 7.2 using KOH), while the extracellular solution contained 145 mM NaCl, 4 mM KCl, 2 mM CaCl2, 2 mM MgCl2, 10 mM HEPES (adjusted to pH 7.4 using NaOH). The assay was performed at room temperature. Cells were maintained at −70 mV and the potentiation effect was assessed by co-application of the test compound with EC20 of muscimol after the cell was pre-incubated with the test compound for 45 s. GABA EC20 measured individually in each cell. The amplitude of the Cl− current in response to muscimol and/or test compound was determined. The response to the co-application of the test compound and muscimol was normalized to the control muscimol response as a percentage of the control. A potentiation effect was indicated by a value >100% of the control response. EC50 values were calculated using the four parameter logistic equation, where E was the amplitude of the muscimol-induced current in the presence of the anesthetic at concentration [A], EMAX was the amplitude of the response in the presence of a maximally effective concentration of the anesthetic, EC50 was the concentration of anesthetic producing a half-maximal enhancement of the muscimol-induced response and nH was the Hill coefficient. [drawing 1]

A further data set relates to rat. It counts as in vivo. How it is done: All tests were performed during the light period. Groups of mice, rats and rabbits were injected intravenously (lateral tail vein) over 10 s with each dose of test compound, placed in separate boxes to reduce external stimuli and assessed for the loss of righting reflex. Dosing was performed using mg/kg scheme. A set of dose levels was chosen, and depending on whether the loss of righting reflex was observed, extra doses were introduced to provide data for the loss of righting reflex over a narrow dose range to allow potency calculations. From the percentage of mice, rats and rabbits in each group showing loss of righting reflex for ≥30 s, a probit analysis (SAS Institute) was performed to obtain an HD50 for each compound with 95% confidence limits.
Immediately following the injection, the mice, rats and rabbits were tested for loss of righting reflex. […] Once a loss was observed, the interval between the loss of righting reflex and the return to righting reflex was recorded. The anesthetized animals recovered righting reflexes spontaneously. To compare the duration of LORR of each compound at equipotent doses, groups of mice, rats and rabbits were injected with each compound at 2× HD50 over 10 s.
Time to walk was the time required after righting before mice and rabbits walked from the center to the periphery of a 30-cm diameter dise.
The rotarod test was conducted to evaluate the recovery to the motor coordination. Before the LORR test, mice were trained for 2 consecutive days. Trained mice could maintain their balance on rod for more than 2 mins. After the mice could walk from the center to the periphery of a 30-cm diameter dise, they were put on the rotarod. Mice were classified as behavioral recovery when, on being placed on the rod, they could maintain their balance for 20 s. The time to behavioral recovery was the time required after mice walked from the centre to the periphery of a 30-cm diameter disc before they could maintain their balance on rod for 20 s.

T1 sequence (P14867 28-456): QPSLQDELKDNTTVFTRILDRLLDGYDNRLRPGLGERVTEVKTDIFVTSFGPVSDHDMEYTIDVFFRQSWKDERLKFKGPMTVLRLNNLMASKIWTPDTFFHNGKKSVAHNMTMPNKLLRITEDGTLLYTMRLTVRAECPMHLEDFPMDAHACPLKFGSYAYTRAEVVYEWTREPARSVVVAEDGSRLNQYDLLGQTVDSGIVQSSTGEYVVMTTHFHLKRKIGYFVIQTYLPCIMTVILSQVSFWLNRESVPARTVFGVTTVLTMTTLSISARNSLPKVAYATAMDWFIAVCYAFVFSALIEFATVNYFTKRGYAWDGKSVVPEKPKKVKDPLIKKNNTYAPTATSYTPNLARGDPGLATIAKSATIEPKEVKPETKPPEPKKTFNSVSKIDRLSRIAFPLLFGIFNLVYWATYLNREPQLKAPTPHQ
T1 sequence (P47870 25-512 limits assumed): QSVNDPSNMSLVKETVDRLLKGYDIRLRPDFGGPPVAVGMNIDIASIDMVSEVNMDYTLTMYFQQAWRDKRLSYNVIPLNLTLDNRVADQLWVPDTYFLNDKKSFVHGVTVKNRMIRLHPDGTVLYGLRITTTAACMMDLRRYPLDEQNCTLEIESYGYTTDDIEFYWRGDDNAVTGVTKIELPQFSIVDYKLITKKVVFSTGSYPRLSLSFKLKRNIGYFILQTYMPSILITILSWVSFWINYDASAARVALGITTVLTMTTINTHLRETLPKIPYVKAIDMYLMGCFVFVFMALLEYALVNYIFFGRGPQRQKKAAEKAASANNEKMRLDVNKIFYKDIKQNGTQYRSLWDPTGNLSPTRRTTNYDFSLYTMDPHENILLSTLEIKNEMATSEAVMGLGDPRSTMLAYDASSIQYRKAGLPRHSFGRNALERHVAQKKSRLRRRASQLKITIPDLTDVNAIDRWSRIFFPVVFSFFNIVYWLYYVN
T1 sequence (P18507 40-475): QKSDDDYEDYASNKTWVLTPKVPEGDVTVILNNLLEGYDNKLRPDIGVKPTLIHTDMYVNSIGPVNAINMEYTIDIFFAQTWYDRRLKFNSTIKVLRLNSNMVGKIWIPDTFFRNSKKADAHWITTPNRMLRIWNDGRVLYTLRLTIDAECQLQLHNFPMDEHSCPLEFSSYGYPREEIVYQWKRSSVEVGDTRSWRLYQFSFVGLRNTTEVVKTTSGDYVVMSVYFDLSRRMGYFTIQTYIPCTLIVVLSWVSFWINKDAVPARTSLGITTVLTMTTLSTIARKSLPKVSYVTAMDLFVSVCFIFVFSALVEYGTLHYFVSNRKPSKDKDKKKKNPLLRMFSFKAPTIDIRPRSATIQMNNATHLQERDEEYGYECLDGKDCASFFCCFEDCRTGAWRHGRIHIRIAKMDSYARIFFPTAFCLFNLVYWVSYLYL

In the case of `CCOc1cc(CC(=O)OCC(F)(F)F)ccc1OCC(=O)N(CC)CC` [Compound 5j, 2,2,2-trifluoroethyl 2-(4-(2-(diethylamino)-2-oxoethoxy)-3-ethoxyphenyl)acetate], the LD50 (as a rule, the dose expected to kill half of the subjects tested) in “in vivo” was determined as 192 mg/kg. Further, the TI in the data set on mice is given as 7.8. Further, in the data set on GABAA receptor, the “GABAA binding (50 µmol) (Mean ± SD), percentage of inhibition” value was 90.5±6.9%. In addition, the half-life at 200 µM in data set [1] came to 24 ± 6 s. This molecule had a TI in the data set with rabbits of 21.2. Further, the “stability in blood (in words)” value in data set [2] (dog blood) is recorded as “stable”. For the same molecule, the half-life at 200 µM in data set [2] (male, whole blood, Beagle dog (n = 3), 37°C, 200 µM, read-out: Mean t1/2 Value) is greater than 1 h. In addition, in data set [3], the “maximum potentiation relative to that of propanidid” value was roughly 150% and the “maximum potentiation relative to that produced by propofol” value is reported as “approximately 50%”. Moreover, the concentration giving a half-maximal response (EC50) (as a rule, the concentration giving half of the maximal effect) in data set [3] (patch clamp, read-out: EC50, potentiation of EC20 muscimol evoked chloride currents) was found to be 12 µM. In addition, in the data set on rat (2× HD50 dose, mean ± SD), the “Duration of LORR” value was found to be 66.5 ± 8.7 s, the Time to walk was found to be 14.2 ± 5.4 s and the “time to behavioral recovery” value was 22.8 ± 3.2 s. For the same molecule, the HD50 in the data set on rat (IV, 95% confidence limits) is 12.9 (10.6∼13.7) mg/kg.
